Patent publication US12616704B2, “Cannabichromene formulation for pain management” (Zyus Life Sciences Inc., priority 2020, dated 2026)

Assays:
[1] = Body weight in OIPN study; assay type: in vivo, C57BL/6J mice; conditions: OIPN mice; CBC 20 mg/kg p.o., Duloxetine 25 mg/kg i.p.
Experimental: Body Weight—Animal body weights were measured before assigning the treatment groups and then on each day of the study. The last body weight measurement was performed upon endpoint sampling. Terminal body weights were not collected from animals found dead or euthanized moribund.

[2] = Body weight monitoring in SNL study; assay type: in vivo, Sprague-Dawley rats; conditions: SNL rats; CBC 10 mg/kg, pregabalin 50 mg/kg; two-way ANOVA, Tukey's
Experimental: Body Weight Monitoring. The body weight of the animals was recorded at baseline evF testing, on the day of surgery (DO), and daily thereafter.

[3] = biological target: TRPA1 (Transient Receptor potential A1) channels (Homo sapiens, UniProt O75762); conditions: among phytocannabinoids; cited from earlier work
[4] = system: SNL-induced mechanical hypersensitivity; assay: Tactile allodynia test (electronic von Frey, evF) in spinal nerve ligation (SNL) model; assay type: in vivo, Sprague-Dawley rats; conditions: for evF, Vehicle vs. treatment: Summary / evF, Vehicle vs. treatment: Predicted (LS) mean diff.: between groups; for evF, Vehicle vs. treatment: Predicted (LS) mean diff. / evF, Pre-Dosing vs. 2 h-PD: Predicted (LS) mean diff. / evF, Pre-Dosing vs. 4 h-PD: Predicted (LS) mean diff. / evF, Pre-Dosing vs. 8 h-PD: Predicted (LS) mean diff. / evF, Pre-Dosing vs. 24 h-PD: Predicted (LS) mean diff.: PWT % from baseline; for Post-SNL vs. BL: Predicted (LS) mean diff.: evF PWT % from baseline; for Post-SNL vs. BL: Predicted (LS) mean diff. / Post-SNL vs. BL: Significant? / Post-SNL vs. BL: Summary: baseline vs. D7 (pre-dosing, before treatment); for Post-SNL vs. BL: Predicted (LS) mean diff. / Post-SNL vs. BL: Significant? / Post-SNL vs. BL: Summary / evF, Pre-Dosing vs. 2 h-PD: Summary / evF, Pre-Dosing vs. 4 h-PD: Summary / evF, Pre-Dosing vs. 8 h-PD: Summary / evF, Pre-Dosing vs. 24 h-PD: Summary / evF, Pre-Dosing vs. 2 h-PD: Predicted (LS) mean diff. / evF, Pre-Dosing vs. 4 h-PD: Predicted (LS) mean diff. / evF, Pre-Dosing vs. 8 h-PD: Predicted (LS) mean diff. / evF, Pre-Dosing vs. 24 h-PD: Predicted (LS) mean diff.: within group; for duration of prolonged anti-nociceptive effect after one-time administration / Post-SNL vs. BL: Significant? / Post-SNL vs. BL: Summary: evF; for AUC of % PWT curve, Vehicle vs. treatment: Mean Diff. / AUC of % PWT curve, Vehicle vs. treatment: Summary: pre-dosing to 24 h PD; for evF, Pre-Dosing vs. 24 h-PD: Summary / evF, Pre-Dosing vs. 24 h-PD: Predicted (LS) mean diff.: pregabalin 50 mg/kg i.p. re-dosed 2 h before evF on D9
Experimental: The treatment groups received the following test article mixtures: • Group 1: treated with vehicle (0.9% saline) • Group 2: treated with Pregabalin (50 mg/kg) • Group 3: treated with CBC (10 mg/kg)
Administration of Treatments. CBC (cannabichromene) formulation, the vehicle, or pregabalin treatment was administered according to Table 1 on study day 8 to all study animals, and on study day 10 to 6 animals per group. The dousing route of CBC or the vehicle were intragastric (p.o.), while pregabalin was administered intraperitoneally (i.p.). In addition to D8, pregabalin was administered on D9, at 2 h prior to the evf test. All animals of the pregabalin group were euthanized on D9, following the last test trial. The CBC was dissolved and diluted to one of the following vehicles:
Spinal Nerve Ligation (SNL) Surgery. The animals were enrolled to SNL surgery in daily cohorts of n=6, according to the number of animals operated per day). The rat first received an intraperitoneal dose of 0.03 mg/kg buprenorphine (Temgesic), at minimum of 30 minutes prior to the surgery, to alleviate the operative and postoperative pain unrelated to neuropathy. The rats were anesthetized with isoflurane in 70% N2O and 30% O2; with a flow rate of 300 ml/min. Anesthesia was inducted with 5% isoflurane for 2-3 min, and maintained through a snout mask with 1-2% isoflurane thereafter.
A dorsal incision extending from L3 to S2 was performed to the medial dorsal area of the rat using aseptic technique. The L6/S1 posterior intrarticular process was exposed using a combination of blunt and sharp dissection. The L6 transverse process in the spinal column was visualized and partially removed without manipulating the nerves, followed by exposing the L4 and L5 spinal nerves distal to their emergence from the intervertebral foramina. Tight double knots of 6-0 silk suture were placed on both spinal nerves.
Tactile Allodynia Test (evF). In this study, mechanical sensitivity to punctate stimulus was defined at six time points, by using electronic von Frey (evF) device with the attached analysis software (Somedic®, Sweden).
Rats displaying inborn oversensitivity were disqualified from the study. Oversensitivity was defined as baseline paw withdrawal threshold (PWT) of <20 g with 1 mm probe. Following the baseline evF testing, the rats were weighed and numbered prior to surgery.
To perform the evF test, the rats were placed in individual von Frey test chambers standing on an elevated steel mesh. The rats were allowed to adapt in the chambers, and the test emerged after they had settled down after investigating the chamber and grooming (approximately 15 min).
Mechanical allodynia was assessed by evF test prior to SNL surgery (baseline), to define the individual “innate” sensitivity levels of the study animals. Next, the evF was performed on D7 post-SNL, to assess the hypersensitivity evoked by the SNL surgery, and to evaluate pre-dosing sensitivity values. Next day (D8), the animals were tested by evF at 2 h, at 4 h, and at 8 h post-dosing (PD). The last evF time point occurred at 24 h PD, i.e. on D9. The listed post-dosing times were used for all groups except group 2, which on D9 received pregabalin at 2 h prior to evF.
The evF apparatus was used according to the manufacturer's instructions. Briefly, upon each measurement, the force was applied to mid-plantar surface of the hind paw in a linearly increasing rate. The used evF probe diameter was 1 mm, and the chosen ascent rate of force 10 g/s. Linearity of force application was monitored real-time. The applied force (in grams) causing paw withdrawal was recorded by the
Altogether 5 repeated measurements were applied to each hind paw at each time-point, leaving a minimum of 3-min interval between the repeats. Three values closest to the median were then averaged to produce result value for each paw at any given time point. Both ipsi- and contralateral paws were tested on each test day.
Statistical Analysis. […]

[5] = Welfare observations in OIPN study; assay type: in vivo, C57BL/6J mice; conditions: CBC 20 mg/kg p.o., OIPN mice
Source text: Seven mice were disqualified from further study due to showing too mild cool allodynia.

CB2 receptors = CB2 receptors (Homo sapiens, UniProt P34972); conditions: read-out: affinity (Ki) for CB2 receptors; cited from earlier work
[6] = 2 h-PD, CBC 10 mg/kg p.o., pregabalin 50 mg/kg i.p.
[7] = 4 h-PD, CBC 10 mg/kg p.o., pregabalin 50 mg/kg i.p.
[8] = 8 h-PD, CBC 10 mg/kg p.o., pregabalin 50 mg/kg i.p.
[9] = 24 h-PD (D9), CBC 10 mg/kg p.o., pregabalin 50 mg/kg i.p. re-dosed 2 h before evF
[10] = CBC 10 mg/kg p.o., pregabalin 50 mg/kg i.p.

Chain of TRPA1 (Transient Receptor potential A1) channels (O75762 whole entry): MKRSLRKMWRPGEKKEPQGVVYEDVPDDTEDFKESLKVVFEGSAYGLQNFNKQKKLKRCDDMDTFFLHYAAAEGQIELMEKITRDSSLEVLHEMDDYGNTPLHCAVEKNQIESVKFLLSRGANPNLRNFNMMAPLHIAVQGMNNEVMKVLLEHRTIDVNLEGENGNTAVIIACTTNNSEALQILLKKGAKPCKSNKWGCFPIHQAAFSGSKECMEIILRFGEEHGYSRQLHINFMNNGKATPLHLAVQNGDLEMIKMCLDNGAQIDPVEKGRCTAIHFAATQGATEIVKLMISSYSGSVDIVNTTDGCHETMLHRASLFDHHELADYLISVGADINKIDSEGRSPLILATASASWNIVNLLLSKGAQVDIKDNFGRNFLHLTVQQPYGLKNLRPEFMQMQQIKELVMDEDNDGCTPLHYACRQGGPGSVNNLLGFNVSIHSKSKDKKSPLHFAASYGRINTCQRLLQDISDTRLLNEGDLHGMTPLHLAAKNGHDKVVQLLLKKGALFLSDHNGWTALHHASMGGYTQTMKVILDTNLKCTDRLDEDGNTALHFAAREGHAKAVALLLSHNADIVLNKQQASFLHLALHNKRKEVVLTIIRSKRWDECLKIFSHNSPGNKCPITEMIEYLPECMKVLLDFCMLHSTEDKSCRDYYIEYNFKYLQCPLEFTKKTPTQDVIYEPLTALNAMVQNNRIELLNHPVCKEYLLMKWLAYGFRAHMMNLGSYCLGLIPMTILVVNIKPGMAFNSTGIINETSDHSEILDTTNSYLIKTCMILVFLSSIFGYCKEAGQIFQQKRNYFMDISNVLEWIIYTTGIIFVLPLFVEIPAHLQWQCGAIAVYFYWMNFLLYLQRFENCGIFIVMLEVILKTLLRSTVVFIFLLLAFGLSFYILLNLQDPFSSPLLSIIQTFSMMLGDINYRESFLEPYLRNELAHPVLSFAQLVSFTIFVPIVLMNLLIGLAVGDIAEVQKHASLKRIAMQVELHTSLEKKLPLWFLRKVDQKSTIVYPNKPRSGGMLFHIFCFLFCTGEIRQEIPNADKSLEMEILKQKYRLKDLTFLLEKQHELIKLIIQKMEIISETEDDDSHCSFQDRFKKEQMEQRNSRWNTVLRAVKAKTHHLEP
Chain of CB2 receptors (P34972 whole entry): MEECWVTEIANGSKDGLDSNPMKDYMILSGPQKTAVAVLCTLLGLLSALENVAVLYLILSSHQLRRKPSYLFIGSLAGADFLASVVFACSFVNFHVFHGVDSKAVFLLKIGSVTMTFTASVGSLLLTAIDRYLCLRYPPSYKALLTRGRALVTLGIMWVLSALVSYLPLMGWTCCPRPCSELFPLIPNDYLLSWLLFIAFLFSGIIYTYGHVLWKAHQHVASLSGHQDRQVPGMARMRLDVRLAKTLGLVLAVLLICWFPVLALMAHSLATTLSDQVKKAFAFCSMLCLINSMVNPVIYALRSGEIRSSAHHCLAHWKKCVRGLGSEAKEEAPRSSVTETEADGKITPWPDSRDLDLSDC

Structure (SMILES)	body weight vs. vehicle over the course of the study [2]	evF, Vehicle vs. treatment: Summary [4, 6]	evF, Vehicle vs. treatment: Predicted (LS) mean diff. [4, 6]	evF, Vehicle vs. treatment: Summary [4, 7]	evF, Vehicle vs. treatment: Predicted (LS) mean diff. [4, 7]	evF, Vehicle vs. treatment: Summary [4, 8]	evF, Vehicle vs. treatment: Predicted (LS) mean diff. [4, 8]	evF, Vehicle vs. treatment: Summary [4, 9]	evF, Vehicle vs. treatment: Predicted (LS) mean diff. [4, 9]	evF, Vehicle vs. treatment: Summary ([4]; Pre-Dosing (D7))	evF, Vehicle vs. treatment: Predicted (LS) mean diff. ([4]; Pre-Dosing (D7))	Post-SNL vs. BL: Predicted (LS) mean diff. [4]	duration of prolonged anti-nociceptive effect after one-time administration [4, 10]	Post-SNL vs. BL: Significant? [4]	Post-SNL vs. BL: Summary [4]	AUC of % PWT curve, Vehicle vs. treatment: Mean Diff. [4, 10]	AUC of % PWT curve, Vehicle vs. treatment: Summary [4, 10]	evF, Pre-Dosing vs. 2 h-PD: Summary [4, 10]	evF, Pre-Dosing vs. 4 h-PD: Summary [4, 10]	evF, Pre-Dosing vs. 8 h-PD: Summary [4, 10]	other results
CCCCCc1cc(O)c2c(c1)OC(C)(CCC=C(C)C)C=C2 (stereo not shown) [CBC, cannabichromene]	not significantly different	ns	−15.45	ns	−10.25	ns	−17.12	ns	−14.84	ns	−0.627	45.98	up to 8 hours	Yes	**** (p<0.0001, extremely/highly significant)	−50.00	** (p<0.01, very significant)	*** (p<0.001, extremely/highly significant)	* (p<0.05, significant)	* (p<0.05, significant)	body weight development from D22 onwards [1]: slower increase in body weight; agonist potency at TRPA1 channels [3]: most potent agonist of all the phytocannabinoids; effect on SNL-induced hypersensitivity (evF), between-group ([4]; CBC 10 mg/kg p.o.): appears to evoke a trend of reversing hypersensitivity; evF, Pre-Dosing vs. 24 h-PD: Summary ([4]; CBC 10 mg/kg p.o.): ns; evF, Pre-Dosing vs. 2 h-PD: Predicted (LS) mean diff. [4, 10]: −29.36; evF, Pre-Dosing vs. 4 h-PD: Predicted (LS) mean diff. [4, 10]: −18.71; evF, Pre-Dosing vs. 8 h-PD: Predicted (LS) mean diff. [4, 10]: −19.64; evF, Pre-Dosing vs. 24 h-PD: Predicted (LS) mean diff. ([4]; CBC 10 mg/kg p.o.): −15.44; adverse effects [5]: no hyper-reactivity or psychoactive adverse effects; Ki (CB2 receptors): ~100 nM
CC(C)C[C@H](CN)CC(=O)O [Pregabalin, pregabalin, reference compound]	not significantly different	ns	−12.08	ns	−0.8299	ns	−12.91	ns	−7.967	ns	−0.02247	46.58	not observed	Yes	**** (p<0.0001, extremely/highly significant)	−29.80	• (p<0.1, an established trend towards significance)	*** (p<0.001, extremely/highly significant)	ns	ns	evF, Pre-Dosing vs. 24 h-PD: Summary ([4]; CBC 10 mg/kg p.o.): ns; evF, Pre-Dosing vs. 2 h-PD: Predicted (LS) mean diff. [4, 10]: −26.59; evF, Pre-Dosing vs. 4 h-PD: Predicted (LS) mean diff. [4, 10]: −9.891; evF, Pre-Dosing vs. 8 h-PD: Predicted (LS) mean diff. [4, 10]: −16.03; evF, Pre-Dosing vs. 24 h-PD: Predicted (LS) mean diff. ([4]; CBC 10 mg/kg p.o.): −9.176
